Data on 63 compounds can be found in patent US12581252B2, “Substituted pyrrolo[3,4-b]pyridines as PI3K-α inhibitors” (Relay Therapeutics, Inc., priority 2020, dated 2026).

Each structure is given as a SMILES string.

The target of this assay is H1047R PIK3CA enzyme (Homo sapiens, UniProt P42336, H1047R). Nature of the assay: ADP-Glo Biochemical PIK3CA Kinase Assay.
Sequence of H1047R PIK3CA enzyme (P42336 whole entry H1047R): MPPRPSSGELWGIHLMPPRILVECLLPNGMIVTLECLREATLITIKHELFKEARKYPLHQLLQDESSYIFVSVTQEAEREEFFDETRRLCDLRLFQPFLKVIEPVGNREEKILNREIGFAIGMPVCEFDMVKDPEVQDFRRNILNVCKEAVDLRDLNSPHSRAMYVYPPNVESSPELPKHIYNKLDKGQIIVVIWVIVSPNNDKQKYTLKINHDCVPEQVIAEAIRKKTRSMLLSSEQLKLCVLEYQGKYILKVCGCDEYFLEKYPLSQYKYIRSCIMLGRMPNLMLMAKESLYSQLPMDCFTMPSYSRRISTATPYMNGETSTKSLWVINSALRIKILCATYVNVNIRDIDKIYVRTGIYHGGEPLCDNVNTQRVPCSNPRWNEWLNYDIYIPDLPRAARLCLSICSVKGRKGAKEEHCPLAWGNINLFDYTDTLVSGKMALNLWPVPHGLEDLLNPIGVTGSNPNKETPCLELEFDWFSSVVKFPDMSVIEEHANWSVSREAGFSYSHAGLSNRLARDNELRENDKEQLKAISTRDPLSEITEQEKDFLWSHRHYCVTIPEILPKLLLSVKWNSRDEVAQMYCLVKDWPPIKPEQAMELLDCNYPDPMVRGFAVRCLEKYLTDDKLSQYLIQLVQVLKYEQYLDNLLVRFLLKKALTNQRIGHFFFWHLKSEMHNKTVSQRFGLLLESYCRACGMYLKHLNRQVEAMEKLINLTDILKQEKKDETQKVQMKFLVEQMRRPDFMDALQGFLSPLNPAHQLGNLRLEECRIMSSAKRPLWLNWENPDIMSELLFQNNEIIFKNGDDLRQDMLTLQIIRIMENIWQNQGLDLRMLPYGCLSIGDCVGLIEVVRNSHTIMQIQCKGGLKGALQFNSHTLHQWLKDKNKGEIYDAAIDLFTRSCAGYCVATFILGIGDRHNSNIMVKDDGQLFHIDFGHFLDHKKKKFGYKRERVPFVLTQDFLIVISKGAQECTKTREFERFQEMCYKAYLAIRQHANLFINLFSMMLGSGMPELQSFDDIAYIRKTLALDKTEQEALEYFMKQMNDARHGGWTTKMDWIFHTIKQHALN
Sequence of H1047R PIK3CA enzyme (P27986 whole entry partner): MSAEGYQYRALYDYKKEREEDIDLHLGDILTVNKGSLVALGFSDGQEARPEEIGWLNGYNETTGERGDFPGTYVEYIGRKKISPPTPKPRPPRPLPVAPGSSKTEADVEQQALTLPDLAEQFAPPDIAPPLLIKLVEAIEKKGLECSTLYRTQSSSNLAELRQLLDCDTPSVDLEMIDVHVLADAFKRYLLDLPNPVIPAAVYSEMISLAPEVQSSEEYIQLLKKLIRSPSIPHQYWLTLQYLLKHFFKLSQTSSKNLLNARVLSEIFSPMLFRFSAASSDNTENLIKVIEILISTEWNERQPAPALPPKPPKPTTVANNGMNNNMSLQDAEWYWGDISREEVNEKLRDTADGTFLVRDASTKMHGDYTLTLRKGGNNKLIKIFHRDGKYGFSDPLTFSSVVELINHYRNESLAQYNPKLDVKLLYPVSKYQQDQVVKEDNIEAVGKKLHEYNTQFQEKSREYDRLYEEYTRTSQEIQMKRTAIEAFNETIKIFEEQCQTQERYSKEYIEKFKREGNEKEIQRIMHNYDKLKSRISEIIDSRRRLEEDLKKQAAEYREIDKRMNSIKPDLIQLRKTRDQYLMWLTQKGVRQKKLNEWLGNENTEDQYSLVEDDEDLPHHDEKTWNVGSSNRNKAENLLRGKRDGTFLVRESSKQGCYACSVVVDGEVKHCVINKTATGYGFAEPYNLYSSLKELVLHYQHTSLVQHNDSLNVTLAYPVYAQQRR
On to `O=C(Nc1cccc2c1C1(CCc3ccccc31)NC2=O)c1cc(F)cc(C(F)(F)F)c1` (stereo not drawn) [Compound I-188], for which the IC50 is 10 to 100 µM. `CC(C)(O)c1cc(NC(=O)c2cc(F)cc(C(F)(F)F)c2)c2c(c1)C(=O)N[C@@H]2c1cc(F)ccc1Cl` [Compound I-190] came in with an IC50 of 1 to 10 µM.

The compound `CC(C)(O)c1cc(NC(=O)c2nsc3ccccc23)c2c(c1)C(=O)N[C@@H]2c1cc(F)ccc1Cl` [Compound I-191] returned an IC50 of 0.5 to 1 µM. `O=C(Nc1cc(-c2cn[nH]c2)nc2c1[C@@H](c1cc(F)ccc1Cl)NC2=O)c1cc(F)cc(C(F)(F)F)c1` [Compound I-193]: the IC50 lay within 1 to 10 µM.

On to `O=C(Nc1cc(-c2cn[nH]c2)nc2c1[C@H](c1cc(F)ccc1Cl)NC2=O)c1cc(F)cc(C(F)(F)F)c1` [Compound I-194], for which the IC50 was at most 0.1 µM. With `O=C(Nc1cc(-c2cn[nH]c2)nc2c1[C@@H](c1cc(F)ccc1Cl)NC2=O)c1cc(F)cc(Cl)c1` [Compound I-195] the figure was 1 to 10 µM; with `O=C(Nc1cc(-c2cn[nH]c2)nc2c1[C@H](c1cc(F)ccc1Cl)NC2=O)c1cc(F)cc(Cl)c1` [Compound I-196], at most 0.1 µM; with `N#Cc1ccccc1C1NC(=O)c2cccc(NC(=O)c3nsc4ccccc34)c21` (stereo not drawn) [Compound I-197], 1 to 10 µM. Compound `COc1cccc2c(C(=O)Nc3cccc4c3C(c3ccccc3C)NC4=O)csc12` (stereo not drawn) [Compound I-198] displayed an IC50 of 10 to 100 µM.

Consider `Cc1ccccc1C1NC(=O)c2nccc(NC(=O)N3CCc4ncccc43)c21` (stereo not drawn) [Compound I-199], for which the IC50 fell in the range of 10 to 100 µM. `Cc1ccccc1C1NC(=O)c2cccc(NC(=O)c3noc4ccc(Cl)cc34)c21` (stereo not drawn) [Compound I-200]: the IC50 was 1 to 10 µM. `Cc1ccccc1C1NCc2cccc(NC(=O)c3nsc4ccccc34)c21` (stereo not drawn) [Compound I-201]: the IC50 fell in the range of 1 to 10 µM.

As for `Cc1ccccc1C1NC(=O)c2c(Br)ccc(NC(=O)c3nsc4ccccc34)c21` (stereo not drawn) [Compound I-203], the IC50 was at most 0.1 µM. To `O=C1NC(C2CCCCC2)c2c(NC(=O)c3nsc4ccccc34)cccc21` (stereo not drawn) [Compound I-204, N-(3-Cyclohexyl-1-oxoisoindolin-4-yl)benzo[d]isothiazole-3-carboxamide] belongs 0.1 to 0.5 µM. With `C=Cc1ccc(NC(=O)c2nsc3ccccc23)c2c1C(=O)NC2c1ccccc1C` (stereo not drawn) [Compound I-205] the figure was 0.1 to 0.5 µM; with `O=C(Nc1cc(Br)cc2c1C(c1cc(F)ccc1C(F)F)NC2=O)c1cc(F)cc(C(F)(F)F)c1` (stereo not drawn) [Compound I-206], at most 0.1 µM; with `CC(=O)NCc1cc(NC(=O)c2cc(F)cc(C(F)(F)F)c2)c2c(c1)C(=O)NC2c1cc(F)ccc1Cl` (stereo not drawn) [Compound I-207], 0.1 to 0.5 µM. To `O=C(Nc1ccnc2c1C(c1ccccc1Cl)NC2=O)c1cc(F)cc(C(F)(F)F)c1` (stereo not drawn) [Compound I-208] belongs 0.5 to 1 µM.

As to `O=C1NC(c2ccccc2Cl)c2c(NC(=O)c3coc4c(F)cc(F)cc34)ccnc21` (stereo not drawn) [Compound I-209], the IC50 was 0.5 to 1 µM. To `O=C1NC(c2cccc(F)c2F)c2c(NC(=O)c3coc4c(F)cc(F)cc34)ccnc21` (stereo not drawn) [Compound I-210] belongs 1 to 10 µM; to `CNC(=O)c1cc(NC(=O)c2cc(F)cc(C(F)(F)F)c2)c2c(c1)C(=O)N[C@@H]2c1ccccc1C` [Compound I-211], 10 to 100 µM. `CNC(=O)c1cc(NC(=O)c2cc(F)cc(C(F)(F)F)c2)c2c(c1)C(=O)N[C@H]2c1ccccc1C` [Compound I-212] displayed an IC50 of at most 0.1 µM. To `CC(C)(O)c1cc(NC(=O)c2cc(F)cc(Cl)c2)c2c(c1)C(=O)NC2c1cc(F)ccc1Cl` (stereo not drawn) [Compound I-214] belongs at most 0.1 µM. With `CC(=O)c1cc(NC(=O)c2cc(F)cc(Cl)c2)c2c(c1)C(=O)NC2c1cc(F)ccc1Cl` (stereo not drawn) [Compound I-215] the figure was 0.1 to 0.5 µM. With `O=C(Nc1cc(Br)cc2c1C(c1cc(F)ccc1Cl)NC2=O)c1cc(F)cc(Cl)c1` (stereo not drawn) [Compound I-216] the figure was at most 0.1 µM; with `Nc1cc(NC(=O)c2cc(F)cc(C(F)(F)F)c2)c2c(c1)C(=O)N[C@@H]2c1cc(F)ccc1Cl` [Compound I-217], 1 to 10 µM.

As to `Cc1ccccc1C1NC(=O)c2c(C(=O)N3CC(C#N)C3)ccc(NC(=O)c3nsc4ccccc34)c21` (stereo not drawn) [Compound I-219], the IC50 fell in the range of 0.5 to 1 µM.

The compound `O=C1NC(c2ccccc2C(F)(F)F)c2c(NC(=O)c3nsc4ccccc34)cccc21` (stereo not drawn) [Compound I-221] showed an IC50 of 10 to 100 µM.

Take `COC(=O)c1cc(NC(=O)c2nsc3ccccc23)c2c(n1)C(=O)NC2c1ccccc1Cl` (stereo not drawn) [Compound I-222, Methyl 4-(1,2-benzothiazole-3-amido)-5-(2-chlorophenyl)-7-oxo-5H,6H,7H-pyrrolo[3,4-b]pyridine-2-carboxylate]: the IC50 lay within 0.1 to 0.5 µM. With `Cc1ccccc1C1NC(=O)c2c(CNC(=O)C(F)(F)F)ccc(NC(=O)c3csc4ccccc34)c21` (stereo not drawn) [Compound I-223] the figure was 0.1 to 0.5 µM; with `Cc1ccccc1C1NC(=O)c2c(CO)ccc(NC(=O)c3csc4ccccc34)c21` (stereo not drawn) [Compound I-224], at most 0.1 µM; with `Cc1ccccc1C1NC(=O)c2c(C(=O)N3CC(S(C)(=O)=O)C3)ccc(NC(=O)c3nsc4ccccc34)c21` (stereo not drawn) [Compound I-225], 0.1 to 0.5 µM.

`Cc1ccccc1C1NC(=O)c2cccc(NC(=O)C34CCC(C3)c3ccccc34)c21` (stereo not drawn) [Compound I-226, N-(1-Oxo-3-(o-tolyl)isoindolin-4-yl)-1,2,3,4-tetrahydro-1,4-methanonaphthalene-1-carboxamide]: the IC50 is 1 to 10 µM. With `Cc1ccccc1[C@@H]1NC(=O)c2nccc(NC(=O)N3CCc4ccccc43)c21` [Compound I-227] the figure was 0.1 to 0.5 µM; with `Cc1ccccc1[C@H]1NC(=O)c2nccc(NC(=O)N3CCc4ccccc43)c21` [Compound I-228], 10 to 100 µM. To `Cc1ccccc1[C@@H]1NC(=O)c2nccc(NC(=O)N3CCc4c(F)cc(F)cc43)c21` [Compound I-229] belongs 0.5 to 1 µM. With `Cc1ccccc1[C@H]1NC(=O)c2nccc(NC(=O)N3CCc4c(F)cc(F)cc43)c21` [Compound I-230] the figure was 10 to 100 µM; with `CS(=O)(=O)Cc1cc(NC(=O)c2cc(F)cc(Cl)c2)c2c(c1)C(=O)NC2c1cc(F)ccc1Cl` (stereo not drawn) [Compound I-231], at most 0.1 µM; with `Cc1ccccc1C1NC(=O)c2c(Cl)ncc(NC(=O)c3cc(F)cc(C(F)(F)F)c3)c21` (stereo not drawn) [Compound I-232, N-[4-Chloro-1-(2-methylphenyl)-3-oxo-1H,2H,3H-pyrrolo[3,4-c]pyridin-7-yl]-3-fluoro-5-(trifluoromethyl)benzamide], 0.1 to 0.5 µM. Take `Cc1ccccc1C1NC(=O)c2cncc(NC(=O)c3cc(F)cc(C(F)(F)F)c3)c21` (stereo not drawn) [Compound I-233]: the IC50 was 0.1 to 0.5 µM.

In turn, `O=C(Nc1ccnc2c1C(c1ccccc1Cl)NC2=O)c1cc(F)cc(OC(F)(F)F)c1` (stereo not drawn) [Compound I-234] returned an IC50 of 1 to 10 µM. To `N#Cc1cc(F)cc(C(=O)Nc2ccnc3c2C(c2ccccc2Cl)NC3=O)c1` (stereo not drawn) [Compound I-235] belongs 10 to 100 µM; to `Cc1ccccc1C1NC(=O)c2c(C#N)ncc(NC(=O)c3cc(F)cc(C(F)(F)F)c3)c21` (stereo not drawn) [Compound I-236], 1 to 10 µM; to `N#Cc1cc(NC(=O)c2cc(F)cc(C(F)(F)F)c2)c2c(c1)C(=O)NC2c1cc(F)ccc1C(F)F` (stereo not drawn) [Compound I-237], at most 0.1 µM. As to `CC(=O)c1cc(NC(=O)c2cc(F)cc(C(F)(F)F)c2)c2c(c1)C(=O)NC2c1cc(F)ccc1C(F)F` (stereo not drawn) [Compound I-238], the IC50 was at most 0.1 µM. To `CC(C)(O)c1cc(NC(=O)c2cc(F)cc(C(F)(F)F)c2)c2c(c1)C(=O)NC2c1cc(F)ccc1C(F)F` (stereo not drawn) [Compound I-239] belongs at most 0.1 µM. With `O=C(Nc1ccnc2c1C(c1ccccc1Cl)NC2=O)c1ccnc2c1CCC2` (stereo not drawn) [Compound I-240] the figure was 10 to 100 µM; with `Cn1ncc(C2NC(=O)c3cccc(NC(=O)c4nsc5ccccc45)c32)c1C(F)F` (stereo not drawn) [Compound I-241], 10 to 100 µM; with `CC(C)(O)c1cc(NC(=O)c2cc(F)cc(C(F)(F)F)c2)c2c(n1)C(=O)NC2c1cc(F)ccc1Cl` (stereo not drawn) [Compound I-242], 0.1 to 0.5 µM. To `Cc1ccccc1C1NC(=O)c2c(N(C)C)ncc(NC(=O)c3cc(F)cc(C(F)(F)F)c3)c21` (stereo not drawn) [Compound I-243] belongs 0.5 to 1 µM. In the case of `Cc1ccccc1C1NC(=O)c2c(C)ncc(NC(=O)c3cc(F)cc(C(F)(F)F)c3)c21` (stereo not drawn) [Compound I-244, 3-Fluoro-N-(4-methyl-3-oxo-1-(o-tolyl)-2,3-dihydro-1H-pyrrolo[3,4-c]pyridin-7-yl)-5-(trifluoromethyl)benzamide], the IC50 is 0.1 to 0.5 µM.

Regarding `O=C(Nc1ccc(F)cc1F)Nc1ccnc2c1C(c1ccccc1Cl)NC2=O` (stereo not drawn) [Compound I-245], the IC50 lay within 1 to 10 µM. With `Cc1ccccc1[C@@H]1NC(=O)c2nccc(NC(=O)N3CCc4ccc(F)cc43)c21` [Compound I-246] the figure was 0.1 to 0.5 µM; with `Cc1ccccc1[C@H]1NC(=O)c2nccc(NC(=O)N3CCc4ccc(F)cc43)c21` [Compound I-247], 10 to 100 µM; with `Cc1ccccc1C1NC(=O)c2nccc(NC(=O)N3CCc4cnccc43)c21` (stereo not drawn) [Compound I-248], 10 to 100 µM. With `Cc1ccccc1C1NC(=O)c2nccc(NC(=O)N3CC(C)c4ccccc43)c21` (stereo not drawn) [Compound I-249] the figure was 0.1 to 0.5 µM; with `CC(C)(O)c1cc(NC(=O)c2nsc3ccccc23)c2c(n1)C(=O)NC2c1ccccc1Cl` (stereo not drawn) [Compound I-250], at most 0.1 µM. With `Cc1ccccc1C1NC(=O)c2nccc(NC(=O)N3CCc4ccncc43)c21` (stereo not drawn) [Compound I-251] the figure was 10 to 100 µM; with `Cc1ccccc1-n1[nH]c(=O)c2cccc(NC(=O)c3coc4c(F)cc(Cl)cc34)c21` [Compound I-252], 0.1 to 0.5 µM. Compound `Cc1ccccc1C1NC(=O)c2c(N3CCOCC3)ncc(NC(=O)c3cc(F)cc(C(F)(F)F)c3)c21` (stereo not drawn) [Compound I-253] displayed an IC50 of 1 to 10 µM. As for `Cc1ccccc1C1NC(=O)c2c(-c3cnn(C)c3)ncc(NC(=O)c3cc(F)cc(C(F)(F)F)c3)c21` (stereo not drawn) [Compound I-254], the IC50 was 0.1 to 0.5 µM. In turn, `O=C(Nc1cnc(N2CCOCC2)c2c1C(c1cc(F)ccc1Cl)NC2=O)c1cc(F)cc(C(F)(F)F)c1` (stereo not drawn) [Compound I-255] displayed a concentration for half-maximal inhibition (IC50) of 1 to 10 µM.

Compound `Cc1ccccc1C1NC(=O)c2cccc(NC(=O)C3CCc4ccccc43)c21` (stereo not drawn) [Compound I-256] yielded an IC50 of 1 to 10 µM.

The IC50 is the concentration needed to halve the response being measured. A low value points to higher potency.
